Experimental data reported in patent US20160206688A1, “METHODS FOR TREATING BACTEREMIA AND OSTEOMYELITIS USING ORITAVANCIN” (THE MEDICINES COMPANY, priority 2013, published 2016).
≈ marks a conversion by molar mass, not a printed value.

Tested on: MDR SA
Assay: Microdilution MIC against MDR SA by specimen source
Format: cell-based, S. aureus
Description: 456 clinical, single-patient, non-consecutive, MDR SA isolates from the known specimen sources collected in 2011-2012 were analyzed. MDR was defined as resistant to ≧3 of the following: erythromycin, clindamycin, gentamicin, levofloxacin, and trimethoprim/sulfamethoxazole. 382 were MRSA and 74 were MSSA. MICs were determined by microdilution testing in accordance with CLSI M7 and M100 guidelines. Although other comparator drugs were tested, this analysis focuses on the activities of ORI, VAN, DAP, and LZD.

Work on `CN[C@H](CC(C)C)C(=O)N[C@H]1C(=O)N[C@@H](CC(N)=O)C(=O)N[C@H]2C(=O)N[C@H]3C(=O)N[C@H](C(=O)N[C@H](C(=O)O)c4cc(O)cc(O)c4-c4cc3ccc4O)[C@H](O[C@H]3C[C@](C)(N)[C@@H](O)[C@H](C)O3)c3ccc(c(Cl)c3)Oc3cc2cc(c3O[C@@H]2O[C@H](CO)[C@@H](O)[C@H](O)[C@H]2O[C@H]2C[C@](C)(NCc3ccc(-c4ccc(Cl)cc4)cc3)[C@@H](O)[C@H](C)O2)Oc2ccc(cc2Cl)[C@H]1O` [Oritavancin, N-(4-(4-chlorophenyl)benzyl)A82846B] yielded an MIC50 (Blood, n = 108) of 0.03 mg/L (≈ 0.0167 µM), an MIC90 (Blood, n = 108) of 0.12 mg/L (≈ 0.0669 µM) and a Mode (MIC) (Blood, n = 108) of 0.03 mg/L. For the same compound, the “Range (MIC)” value (Blood, n = 108, in µg/mL) was 0.015-0.25, the MIC50 (Respiratory, N = 157) was 0.03 mg/L (≈ 0.0167 µM) and the MIC90 (Respiratory, N = 157) was 0.06 mg/L (≈ 0.0335 µM). The Mode (MIC) (Respiratory, N = 157) was 0.03 mg/L, the “Range (MIC)” value (Respiratory, N = 157, in µg/mL) was 0.008-0.25 and the MIC50 (Skin/Wound, N = 191) was 0.03 mg/L (≈ 0.0167 µM). The MIC90 (Skin/Wound, N = 191) was 0.06 mg/L (≈ 0.0335 µM), the Mode (MIC) (Skin/Wound, N = 191) was 0.03 mg/L and the “Range (MIC)” value (Skin/Wound, N = 191) was “≦0.002-0.25”.
